Assay results published in patent publication EP0684766B1, “HERBICIDAL COMPOSITIONS” (Hoechst Schering AgrEvo GmbH, priority 1993, dated 1994).

Experiments:
[1] = test system: Galium aparine; test: Post-emergent field test on winter cereals, % control of weeds; conditions: for % Control GALAP: post-emergent
Protocol: (§1) The Examples are field tests carried out post-emergently in the Autumn on winter cereals. The compositions are evenly applied to the plants as suspensions using a water amount of 500 litres per hectare. […] The evaluation of the individual components (a) and (b) as well as their mixtures was carried out on a scale where 0 is no damage and 100 is complete destruction of the plants.

[2] = test system: Viola arvensis; test: as above; conditions: for % Control VIOLA: post-emergent
Protocol: as §1

[3] = test system: Stellaria media; test: as above; conditions: for % Control STEME: post-emergent
Protocol: as §1

[4] = test system: Matricaria chamomilla; test: as above; conditions: for % Control MATCH: post-emergent
Protocol: as §1

[5] = test system: plants; test: Herbicidal activity of the phosphonate applied on its own; type: in vivo
[6] = 15 g ai/ha, evaluation 30 days after application
[7] = 24 g ai/ha, evaluation 15 days after application
[8] = 48 g ai/ha, evaluation 15 days after application
[9] = 48 g ai/ha, evaluation 30 days after application
[10] = 95 g ai/ha, evaluation 15 days after application
[11] = 10 g ai/ha, evaluation 15 days after application
[12] = Galium aparine, post-emergence, 360 h, read-out: % Control GALAP
[13] = Viola arvensis, post-emergence, 360 h, read-out: % Control VIOLA
[14] = Stellaria media, post-emergence, 360 h, read-out: % Control STEME
[15] = Matricaria chamomilla, post-emergence, 360 h, read-out: % Control MATCH
[16] = Galium aparine, post-emergence, 720 h, read-out: % Control GALAP
[17] = Viola arvensis, post-emergence, 720 h, read-out: % Control VIOLA
[18] = Stellaria media, post-emergence, 720 h, read-out: % Control STEME
[19] = Matricaria chamomilla, post-emergence, 720 h, read-out: % Control MATCH

## COC(=O)c1ccccc1S(=O)(=O)NC(=O)N(C)c1nc(C)nc(OC)n1
[1]; [6]
  % Control GALAP: 47%
[2]; [6]
  % Control VIOLA: 40%
[3]; [6]
  % Control STEME: 78%
[4]; [6]
  % Control MATCH: 88%

## CCCCC(CC)COP(=O)(CC(CC)CCCC)OCC(CC)CCCC (stereo not shown) [(a), O,O-bis(2-ethylhexyl)(2-ethylhexyl)phosphonate]
[5]
  herbicidal activity: no herbicidal activity
[1]; [7]
  % Control GALAP: 0%
[1]; [8]
  % Control GALAP: 0%
[1]; [9]
  % Control GALAP: 0%
[1]; [10]
  % Control GALAP: 0%
[2]; [8]
  % Control VIOLA: 0%
[2]; [9]
  % Control VIOLA: 0%
[2]; [10]
  % Control VIOLA: 0%
[3]; [7]
  % Control STEME: 0%
[3]; [8]
  % Control STEME: 0%
[3]; [9]
  % Control STEME: 0%
[3]; [10]
  % Control STEME: 0%
[4]; [7]
  % Control MATCH: 0%
[4]; [8]
  % Control MATCH: 0%
[4]; [9]
  % Control MATCH: 0%
[4]; [10]
  % Control MATCH: 0%

## C#CCN1C(=O)COc2cc(F)c(N=c3snc4n3CC(C)(C)C4)cc21 [(b1), 6-(6,7-dihydro-6,6-dimethyl-3H,5H-pyrrolo[2,1-c][1,2,4]thiadiazol-3-ylidenimino)-7-fluoro-4-(2-propynyl)-2H-1,4-benzoxazin-3(4H)-one]
[1]; [11]
  % Control GALAP: 47%
[3]; [11]
  % Control STEME: 70%
[4]; [11]
  % Control MATCH: 50%

## C#CCN1C(=O)COc2cc(F)c(N3C(=O)C4CCCCN4C3=O)cc21 (stereo not shown) [(b2), 2-[7-fluoro-3-oxo-4-(2-propynyl)-3,4-dihydro-2H-1,4-benzoxazin-6-yl]perhydroimidazo[1,5-a]pyridine-1,3-dione]
[1]; [12]
  pest or weed control at 15 g/ha: 35%
[2]; [13]
  pest or weed control at 15 g/ha: 37%
[3]; [14]
  pest or weed control at 15 g/ha: 27%
[4]; [15]
  pest or weed control at 15 g/ha: 90%

## CCc1nc2c(Cl)cc(F)c(N3C(=O)C4=C(CCCC4)C3=O)c2s1 [(b3), N-(4-chloro-2-ethyl-6-fluorobenzothiazol-7-yl)-1-cyclohexene-1,2-dicarboximide]
[1]; [12]
  pest or weed control at 15 g/ha: 33%
[2]; [13]
  pest or weed control at 15 g/ha: 83%
[3]; [14]
  pest or weed control at 15 g/ha: 20%
[4]; [15]
  pest or weed control at 15 g/ha: 99%

## COc1cc(OC)nc(NC(=O)NS(=O)(=O)N(C)S(C)(=O)=O)n1 [(b4), 3-[4,6-dimethoxypyrimidin-2-yl)-1-(N-methyl-N-methylsulfonyl-aminosulfonyl)urea]
[1]; [16]
  pest or weed control at 12 g/ha: 42%
[2]; [17]
  pest or weed control at 12 g/ha: 20%
[3]; [18]
  pest or weed control at 12 g/ha: 40%
[4]; [19]
  pest or weed control at 12 g/ha: 55%

## CC(C)c1ccc(NC(=O)N(C)C)cc1 [(b6), isoproturon]
[1]; [16]
  pest or weed control at 750 g/ha: 13%
[2]; [17]
  pest or weed control at 750 g/ha: 30%
[3]; [18]
  pest or weed control at 750 g/ha: 55%
[4]; [19]
  pest or weed control at 750 g/ha: 83%

## Cc1ccc(NC(=O)N(C)C)cc1Cl [(b7), chlorotoluron]
[1]; [16]
  pest or weed control at 750 g/ha: 15%
[2]; [17]
  pest or weed control at 750 g/ha: 23%
[3]; [18]
  pest or weed control at 750 g/ha: 85%
[4]; [19]
  pest or weed control at 750 g/ha: 88%

## CCOC(=O)Cn1c(=O)sc2cccc(Cl)c21 [(b8), benazolin-ethyl]
[1]; [16]
  pest or weed control at 200 g/ha: 18%
[2]; [17]
  pest or weed control at 200 g/ha: 22%
[3]; [18]
  pest or weed control at 200 g/ha: 88%

## O=C(O)CNCP(=O)(O)O [(b9), glyphosate]
[1]; [16]
  pest or weed control at 50 g/ha: 20%
[2]; [17]
  pest or weed control at 50 g/ha: 10%
[3]; [18]
  pest or weed control at 50 g/ha: 25%
[4]; [19]
  pest or weed control at 50 g/ha: 28%

## COC(=O)c1cc(Oc2ccc(Cl)cc2Cl)ccc1[N+](=O)[O-] [bifenox]
[1]; [12]
  pest or weed control at 500 g/ha: 78%
[2]; [13]
  pest or weed control at 500 g/ha: 95%
[3]; [14]
  pest or weed control at 500 g/ha: 15%
[4]; [15]
  pest or weed control at 500 g/ha: 63%

## COc1nc(C)nc(=NC(=O)NS(=O)(=O)c2ccccc2C(=O)O)[nH]1 [metsulfuron]
[1]; [16]
  pest or weed control at 3 g/ha: 10%
[2]; [17]
  pest or weed control at 3 g/ha: 50%
[3]; [18]
  pest or weed control at 3 g/ha: 96%
[4]; [19]
  pest or weed control at 3 g/ha: 97%
